{"source": "ChEMBL document CHEMBL6083215", "about": "“Structure elucidation, absolute configuration, and biological evaluation of cyclic peroxides from the sponge Plakinastrella sp” (2024)", "type_in_all_cases": "functional", "key": {"[1]": {"system": "Hs-578T", "experiment": "Growth inhibition of human HS 578T cells"}, "[2]": {"system": "RXF 393", "experiment": "Growth inhibition of human RXF 393 cells"}, "[3]": {"system": "NCI-H322M", "experiment": "Growth inhibition of human NCI-H322M cells"}, "[4]": {"system": "SF-539", "experiment": "Growth inhibition of human SF-539 cells"}, "[5]": {"system": "SF-295", "experiment": "Growth inhibition of human SF-295 cells"}, "[6]": {"system": "UO-31", "experiment": "Growth inhibition of human UO-31 cells"}, "[7]": {"system": "PC-3", "experiment": "Growth inhibition of human PC-3 cells"}, "[8]": {"system": "COLO 205", "experiment": "Growth inhibition of human COLO 205 cells"}, "[9]": {"system": "T47D", "experiment": "Growth inhibition of human T47D cells"}, "[10]": {"system": "SK-MEL-28", "experiment": "Growth inhibition of human SK-MEL-28 cells"}, "[11]": {"system": "LOX IMVI", "experiment": "Growth inhibition of human LOX IMVI cells"}, "[12]": {"system": "CAKI-1", "experiment": "Growth inhibition of human CAKI-1 cells"}, "[13]": {"system": "MCF7", "experiment": "Growth inhibition of human MCF7 cells"}, "[14]": {"system": "UACC-62", "experiment": "Growth inhibition of human UACC-62 cells"}, "[15]": {"system": "DU-145", "experiment": "Growth inhibition of human DU-145 cells"}, "[16]": {"system": "IGROV-1", "experiment": "Growth inhibition of human IGROV-1 cells"}, "[17]": {"system": "SF-268", "experiment": "Growth inhibition of human SF-268 cells"}, "[18]": {"system": "MDA-MB-435", "experiment": "Growth inhibition of human MDA-MB-435 cells"}, "[19]": {"system": "U-251", "experiment": "Growth inhibition of human U-251 cells"}, "[20]": {"system": "K562", "experiment": "Growth inhibition of human K562 cells"}, "[21]": {"system": "OVCAR-8", "experiment": "Growth inhibition of human OVCAR-8 cells"}, "[22]": {"system": "SW-620", "experiment": "Growth inhibition of human SW620 cells"}, "[23]": {"system": "Malme-3M", "experiment": "Growth inhibition of human Malme-3M cells"}, "[24]": {"system": "SK-OV-3", "experiment": "Growth inhibition of human SK-OV-3 cells"}, "[25]": {"system": "BT-549", "experiment": "Growth inhibition of human BT-549 cells"}, "[26]": {"system": "SN12C", "experiment": "Growth inhibition of human SN12C cells"}, "[27]": {"system": "NCI-H460", "experiment": "Growth inhibition of human NCI-H460 cells"}, "[28]": {"system": "HT-29", "experiment": "Growth inhibition of human HT-29 cells"}, "[29]": {"system": "OVCAR-3", "experiment": "Growth inhibition of human OVCAR-3 cells"}, "[30]": {"system": "A549", "experiment": "Growth inhibition of human A549 cells"}, "[31]": {"system": "UACC-257", "experiment": "Growth inhibition of human UACC-257 cells"}, "[32]": {"system": "ACHN", "experiment": "Growth inhibition of human ACHN cells"}, "[33]": {"system": "KM12", "experiment": "Growth inhibition of human KM12 cells"}, "[34]": {"system": "SK-MEL-5", "experiment": "Growth inhibition of human SK-MEL-5 cells"}, "[35]": {"system": "HCC 2998", "experiment": "Growth inhibition of human HCC 2998 cells"}, "[36]": {"system": "CCRF-CEM", "experiment": "Growth inhibition of human CCRF-CEM cells"}, "[37]": {"system": "MDA-MB-231", "experiment": "Growth inhibition of human MDA-MB-231 cells"}, "[38]": {"system": "HOP-92", "experiment": "Growth inhibition of human HOP-92 cells"}, "[39]": {"system": "SNB-75", "experiment": "Growth inhibition of human SNB-75 cells"}, "[40]": {"system": "HCT-116", "experiment": "Growth inhibition of human HCT-116 cells"}, "[41]": {"system": "NCI-H23", "experiment": "Growth inhibition of human NCI-H23 cells"}, "[42]": {"system": "HCT-15", "experiment": "Growth inhibition of human HCT-15 cells"}, "[43]": {"system": "EKVX", "experiment": "Growth inhibition of human EKVX cells"}, "[44]": {"system": "NCI/ADR-RES", "experiment": "Growth inhibition of human NCI-ADR-RES cells"}, "[45]": {"system": "OVCAR-5", "experiment": "Growth inhibition of human OVCAR-5 cells"}, "[46]": {"system": "NCI-H226", "experiment": "Growth inhibition of human NCI-H226 cells"}, "[47]": {"system": "SNB-19", "experiment": "Growth inhibition of human SNB-19 cells"}, "[48]": {"system": "MOLT-4", "experiment": "Growth inhibition of human MOLT-4 cells"}, "[49]": {"system": "OVCAR-4", "experiment": "Growth inhibition of human OVCAR-4 cells"}, "[50]": {"system": "MDA-MB-468", "experiment": "Growth inhibition of human MDA-MB-468 cells"}, "[51]": {"system": "A498", "experiment": "Growth inhibition of human A498 cells"}, "[52]": {"system": "RPMI-8226", "experiment": "Growth inhibition of human RPMI-8226 cells"}, "[53]": {"system": "HL-60(TB)", "experiment": "Growth inhibition of human HL-60(TB) cells"}, "[54]": {"system": "SK-MEL-2", "experiment": "Growth inhibition of human SK-MEL-2 cells"}, "[55]": {"system": "TK-10", "experiment": "Growth inhibition of human TK-10 cells"}, "[56]": {"system": "HOP-62", "experiment": "Growth inhibition of human HOP-62 cells"}, "[57]": {"system": "SR", "experiment": "Growth inhibition of human SR cells"}, "[58]": {"system": "NCI-H522", "experiment": "Growth inhibition of human NCI-H522 cells"}, "[59]": {"system": "M14", "experiment": "Growth inhibition of human M14 cells"}, "[60]": {"system": "786-0", "experiment": "Growth inhibition of human 786-0 cells"}}, "data": [{"smiles": "CCCCCCCC/C=C(/C)C[C@]1(C)C[C@H](C)[C@@H](CC(=O)O)OO1", "values": [{"measurement": "GI50", "setting": "[1]", "result": 600, "unit": "nM"}, {"measurement": "GI50", "setting": "[2]", "result": 600, "unit": "nM"}, {"measurement": "GI50", "setting": "[3]", "result": 600, "unit": "nM"}, {"measurement": "GI50", "setting": "[4]", "result": 600, "unit": "nM"}, {"measurement": "GI50", "setting": "[5]", "result": 600, "unit": "nM"}, {"measurement": "GI50", "setting": "[6]", "result": 60, "unit": "nM"}, {"measurement": "GI50", "setting": "[7]", "result": 600, "unit": "nM"}, {"measurement": "GI50", "setting": "[8]", "result": 600, "unit": "nM"}, {"measurement": "GI50", "setting": "[9]", "result": 600, "unit": "nM"}, {"measurement": "GI50", "setting": "[10]", "result": 600, "unit": "nM"}, {"measurement": "GI50", "setting": "[11]", "result": 10, "unit": "nM"}, {"measurement": "GI50", "setting": "[12]", "result": 600, "unit": "nM"}, {"measurement": "GI50", "setting": "[13]", "result": 600, "unit": "nM"}, {"measurement": "GI50", "setting": "[14]", "result": 600, "unit": "nM"}, {"measurement": "GI50", "setting": "[15]", "result": 600, "unit": "nM"}, {"measurement": "GI50", "setting": "[16]", "result": 600, "unit": "nM"}, {"measurement": "GI50", "setting": "[17]", "result": 600, "unit": "nM"}, {"measurement": "GI50", "setting": "[18]", "result": 600, "unit": "nM"}, {"measurement": "GI50", "setting": "[19]", "result": 600, "unit": "nM"}, {"measurement": "GI50", "setting": "[20]", "result": 600, "unit": "nM"}, {"measurement": "GI50", "setting": "[21]", "result": 600, "unit": "nM"}, {"measurement": "GI50", "setting": "[22]", "result": 600, "unit": "nM"}, {"measurement": "GI50", "setting": "[23]", "result": 600, "unit": "nM"}, {"measurement": "GI50", "setting": "[24]", "result": 600, "unit": "nM"}, {"measurement": "GI50", "setting": "[25]", "result": 600, "unit": "nM"}, {"measurement": "GI50", "setting": "[26]", "result": 600, "unit": "nM"}, {"measurement": "GI50", "setting": "[27]", "result": 600, "unit": "nM"}, {"measurement": "GI50", "setting": "[28]", "result": 600, "unit": "nM"}, {"measurement": "GI50", "setting": "[29]", "result": 600, "unit": "nM"}, {"measurement": "GI50", "setting": "[30]", "result": 600, "unit": "nM"}, {"measurement": "GI50", "setting": "[31]", "result": 600, "unit": "nM"}, {"measurement": "GI50", "setting": "[32]", "result": 600, "unit": "nM"}, {"measurement": "GI50", "setting": "[33]", "result": 600, "unit": "nM"}, {"measurement": "GI50", "setting": "[34]", "result": 600, "unit": "nM"}, {"measurement": "GI50", "setting": "[35]", "result": 600, "unit": "nM"}, {"measurement": "GI50", "setting": "[36]", "result": 600, "unit": "nM"}, {"measurement": "GI50", "setting": "[37]", "result": 600, "unit": "nM"}, {"measurement": "GI50", "setting": "[38]", "result": 600, "unit": "nM"}, {"measurement": "GI50", "setting": "[39]", "result": 600, "unit": "nM"}, {"measurement": "GI50", "setting": "[40]", "result": 600, "unit": "nM"}, {"measurement": "GI50", "setting": "[41]", "result": 600, "unit": "nM"}, {"measurement": "GI50", "setting": "[42]", "result": 600, "unit": "nM"}, {"measurement": "GI50", "setting": "[43]", "result": 600, "unit": "nM"}, {"measurement": "GI50", "setting": "[44]", "result": 600, "unit": "nM"}, {"measurement": "GI50", "setting": "[45]", "result": 600, "unit": "nM"}, {"measurement": "GI50", "setting": "[46]", "result": 600, "unit": "nM"}, {"measurement": "GI50", "setting": "[47]", "result": 600, "unit": "nM"}, {"measurement": "GI50", "setting": "[48]", "result": 600, "unit": "nM"}, {"measurement": "GI50", "setting": "[49]", "result": 600, "unit": "nM"}, {"measurement": "GI50", "setting": "[50]", "result": 600, "unit": "nM"}, {"measurement": "GI50", "setting": "[51]", "result": 600, "unit": "nM"}, {"measurement": "GI50", "setting": "[52]", "result": 600, "unit": "nM"}, {"measurement": "GI50", "setting": "[53]", "result": 90, "unit": "nM"}, {"measurement": "GI50", "setting": "[54]", "result": 600, "unit": "nM"}, {"measurement": "GI50", "setting": "[55]", "result": 600, "unit": "nM"}, {"measurement": "GI50", "setting": "[56]", "result": 600, "unit": "nM"}, {"measurement": "GI50", "setting": "[57]", "result": 600, "unit": "nM"}, {"measurement": "GI50", "setting": "[58]", "result": 600, "unit": "nM"}, {"measurement": "GI50", "setting": "[59]", "result": 600, "unit": "nM"}, {"measurement": "GI50", "setting": "[60]", "result": 600, "unit": "nM"}]}]}
